Source: US20230165922A1, “APPLICATION OF RADIX GENTIANAE MACROPHYLLAE AND MONOMER COMPOUND THEREOF IN KILLING MITES” (SMILEBIOTECK ZHUHAI LIMITED, priority 2020, published 2023)

Legend:
D.folliculorum [1] = test: Preliminary in-vitro screening of monomer compounds for effect on survival time of Demodex mites; conditions: 20° C., humidity 96%; for Survival time (hours) of D.folliculorum in vitro: 35 µL monomer compound solution in 10% DMSO, observed every 2 hours, mean ± SD
Excerpt: The names and molecular formulas of the monomer compounds are shown in the following table: The monomer compounds were purchased from Chengdu Herbpurify Co., Ltd., and were standard references.
The powders of the monomer compounds shown in Table 2 were separately dissolved in dimethyl sulfoxide (DMSO), and then diluted with sterilized double-distilled water to make the final concentration of DMSO 10%, which could not shorten the survival time of Demodex mites as per a controlled study. The negative control group received DMSO mixed with sterilized water at a final concentration of 10%.
As in Example 1, 35 µL of each solution was added to a glass slide, and the survival of the mites was observed under an optical microscope every 2 hours. During the experiment, the Demodex mites were observed by two skilled operators separately for the activities (bodies, limbs and the like) through the microscope to determine whether they were dead or not. If the two operators gave different results, the survival status was determined independently by a third skilled operator. The in-vitro culture was conducted in a climatic chamber at a temperature of 20° C. and a humidity of 96%. During the observation, the glass slides were transported in a wet box to ensure the high humidity.
In this experiment, statistical analysis was conducted using SPSS22.0 statistical software, normality test was conducted using Shapiro-Wilk test, and homogeneity of variance test was conducted using Bartlett’s test.
Effects of monomer compounds of traditional Chinese medicine on survival time of D.folliculorum The in-vitro culture of the Demodex mites was conducted in an environment at a humidity of 96% and a temperature of 20° C. The survival of the Demodex mites was observed dynamically and the survival time was recorded.

D.folliculorum [2] = test: In-vitro culture of Demodex mites with traditional Chinese medicine decoctions (survival time); conditions: 20° C., humidity 96%
Description: The ethical guidelines of “The Declaration of Helsinki” and “Measures for the Ethical Review of Biomedical Research Involving Humans” were strictly followed in this study. Demodex mites from patients diagnosed with ocular Demodex infestation were collected in this study. Subjects who met the inclusion criteria were enrolled after giving an informed conversation and signing an informed consent.
The detection of Demodex mites was performed according to the conventional method of eyelash microscopy (12,20). 3 eyelashes were collected from each eyelid, with a total of 12 eyelashes. […] Demodex mites in all periods were counted and classified according to morphology (specific standard: D.brevis with a head-to-body ratio of 1:1, and D.folliculorum with a head-to-body ratio of 1:3 to 1:4). […]
On the basis of the above detection of Demodex mites, 35 µL of the solutions was separately added to the slides, and the survival of the mites was observed every 2 hours. […] If the two operators gave different results, the survival status was determined independently by a third skilled operator. […]
60 g of dried ready-to-use forms was weighed using an electronic balance, and soaked in water with an amount of 10 times (600 mL) in a marmite overnight. […]

Row | Compound | Survival time (hours) of D.folliculorum in vitro (D.folliculorum [1]) [h] | also measured
1 | C=C[C@@H]1C2=CCOC(=O)C2=CO[C@H]1O[C@@H]1O[C@H](CO)[C@@H](O)[C@H](O)[C@H]1O [Gentiopicroside] | 37.31 ± 36.06 | Survival time (hours) of D.folliculorum in vitro (D.folliculorum [1]; listed as gentiopicroside): 37.31 ± 36.06 h; Effect on in-vitro survival time of Demodex mites versus 10% DMSO negative control (D.folliculorum [1]; compared with 10% DMSO solution): significantly shorter
2 | C[C@@H]1[C@H]2[C@H](O[C@@H]3O[C@H](CO)[C@@H](O)[C@H](O)[C@H]3O)OC=C(C(=O)O)[C@H]2C[C@@H]1O [Loganic acid] | 61.56 ± 22.84 | 
3 | COC(=O)c1c2c(c3ccccc3c1O)OC(C)(C)C=C2 [Mollugin] | 61.10 ± 25.12 | 
4 | C=C(C)[C@@H]1CC[C@]2(C)[C@H](CC=C3[C@@H]4[C@@H](C)[C@H](C)CC[C@]4(C)CC[C@]32C)[C@@]1(C)CCC(=O)O [Roburic acid] | 63.41 ± 12.20 | 
5 | COc1cc2ccc(=O)oc2cc1O [Scopoletin] | 54.67 ± 25.66 | 
6 | C=C[C@H]1[C@H](O[C@@H]2O[C@H](CO)[C@@H](O)[C@H](O)[C@H]2O)OC=C2C(=O)OCC[C@H]21 [Sweroside] | 60.79 ± 25.98 | 
7 | C=C[C@H]1[C@H](O[C@@H]2O[C@H](CO)[C@@H](O)[C@H](O)[C@H]2O)OC=C2C(=O)OCC[C@]21O [Swertiamarin] | 59.68 ± 10.97 | 
8 | CC1=CCC(O)(C(C)C)CC1 (centres unmarked) [T40, terpinen-4-ol] |  | Survival time (hours) of D.folliculorum in vitro (D.folliculorum [2]; 35 µL solution on slide, decoctions of 60 g medicine made up to 100 mL water, TTO and T4O 10% in sterilized water, observed every 2 hours, mean ± SD): 40.50 ± 13.12 h; Difference in in-vitro survival time of Demodex mites versus control groups (statistical comparison) (D.folliculorum [2]; Bonferroni comparison with negative control sterilized water (and TTO, T40 groups)): did not show significant differences
